Test results taken from patent US20240108623A1, “METHODS OF TREATING CANCER WITH POZIOTINIB” (BOARD OF REGENTS, THE UNIVERSITY OF TEXAS SYSTEM, priority 2021, published 2024).

Assays:
Test in all cases: Ba/F3 cell drug screening, Cell Titer Glo
Type in all cases: cell-based
EGFR Ex19del T790M L718V = target: T1, EGFR Ex19del T790M L718V (Homo sapiens, UniProt P00533, DEL746-750/L718V/T790M); settings: Ba/F3 cells expressing EGFR Ex19del T790M L718V; 72 hours
T1 construct: expressed in transfected cells; host or cells: Ba/F3 (retroviral transduction, pBabe-Puro based vectors)
Procedure, shortened: (§1)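 Mutant EGFR-driven Ba/F3 cells, maintained in 1 ng/ml EGF, are treated 72 h with a seven-concentration TKI series. Viability is read by CellTiter-Glo, and IC50 derived by variable-slope regression.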

EGFR Ex19del T854I = target: T2, EGFR Ex19del T854I (Homo sapiens, UniProt P00533, DEL746-750/T854I); settings: Ba/F3 cells expressing EGFR Ex19del T854I; 72 hours
T2 construct: expressed in transfected cells; host or cells: Ba/F3 (murine pro-B cells), retroviral transduction with pBabe-Puro based vectors
Procedure, shortened: as §1

EGFR V769L = target: T3, EGFR V769L (Homo sapiens, UniProt P00533, V769L); settings: Ba/F3 cells expressing EGFR V769L; 72 hours
T3 construct: expressed in transfected cells; host or cells: Ba/F3 (retroviral transduction, pBabe-Puro based vectors)
Procedure, shortened: as §1

EGFR A767insASV = target: T4, EGFR A767insASV (Homo sapiens, UniProt P00533, DUP767-769); settings: Ba/F3 cells expressing EGFR A767insASV; 72 hours
T4 construct: expressed in transfected cells; host or cells: Ba/F3 (retroviral, pBabe-Puro based vector)
Procedure, shortened: as §1

EGFR G724S T790M = target: T5, EGFR G724S T790M (Homo sapiens, UniProt P00533, G724S/T790M); settings: Ba/F3 cells expressing EGFR G724S T790M; 72 hours
T5 construct: expressed in transfected cells; host or cells: Ba/F3 (retroviral transduction, pBabe-Puro based vectors)
Procedure, shortened: as §1

EGFR L718V = target: T6, EGFR L718V (Homo sapiens, UniProt P00533, L718V); settings: Ba/F3 cells expressing EGFR L718V; 72 hours
T6 construct: expressed in transfected cells; host or cells: Ba/F3 (retroviral transduction, pBabe-Puro based vectors)
Procedure, shortened: as §1

EGFR Ex19del/C797S = target: T7, EGFR Ex19del/C797S (Homo sapiens, UniProt P00533, C797S/DEL746-750); settings: Ba/F3 cells expressing EGFR Ex19del/C797S; 72 hours
T7 construct: expressed in transfected cells; host or cells: Ba/F3 (murine pro-B cells), retroviral transduction with pBabe-Puro based vectors
Procedure, shortened: as §1

EGFR N771dupN G724S = target: T8, EGFR N771dupN G724S (Homo sapiens, UniProt P00533, DUP771-771/G724S); settings: Ba/F3 cells expressing EGFR N771dupN G724S; 72 hours
T8 construct: expressed in transfected cells; host or cells: Ba/F3 (retroviral, pBabe-Puro based vector; created by GeneScript from EGFR G724S, c.2313_2314insAAC)
Procedure, shortened: as §1

EGFR L858R S784F = target: T9, EGFR L858R S784F (Homo sapiens, UniProt P00533, L858R/S784F); settings: Ba/F3 cells expressing EGFR L858R S784F; 72 hours
T9 construct: expressed in transfected cells; host or cells: Ba/F3 (retroviral, pBabe-Puro based vector; created by GeneScript from EGFR L858R)
Procedure, shortened: as §1

EGFR L858R T790M L792H = target: T10, EGFR L858R T790M L792H (Homo sapiens, UniProt P00533, L792H/L858R/T790M); settings: Ba/F3 cells expressing EGFR L858R T790M L792H; 72 hours
T10 construct: expressed in transfected cells; host or cells: Ba/F3 (retroviral transduction, pBabe-Puro based vectors)
Procedure, shortened: as §1

EGFR Ex19del G796S = target: T11, EGFR Ex19del G796S (Homo sapiens, UniProt P00533, DEL746-750/G796S); settings: Ba/F3 cells expressing EGFR Ex19del G796S; 72 hours
T11 construct: expressed in transfected cells; host or cells: Ba/F3 (retroviral transduction, pBabe-Puro based vectors)
Procedure, shortened: as §1

EGFR E709K L858R = target: T12, EGFR E709K L858R (Homo sapiens, UniProt P00533, E709K/L858R); settings: Ba/F3 cells expressing EGFR E709K L858R; 72 hours
T12 construct: expressed in transfected cells; host or cells: Ba/F3 (retroviral, pBabe-Puro based vector)
Procedure, shortened: as §1

EGFR K757R = target: T13, EGFR K757R (Homo sapiens, UniProt P00533, K757R); settings: Ba/F3 cells expressing EGFR K757R; 72 hours
T13 construct: expressed in transfected cells; host or cells: Ba/F3 (retroviral transduction, pBabe-Puro based vectors)
Procedure, shortened: as §1

EGFR L858R/C797S = target: T14, EGFR L858R/C797S (Homo sapiens, UniProt P00533, C797S/L858R); settings: Ba/F3 cells expressing EGFR L858R/C797S; 72 hours
T14 construct: expressed in transfected cells; host or cells: Ba/F3 (retroviral transduction, pBabe-Puro based vectors)
Procedure, shortened: as §1

EGFR E709A G719S = target: T15, EGFR E709A G719S (Homo sapiens, UniProt P00533, E709A/G719S); settings: Ba/F3 cells expressing EGFR E709A G719S; 72 hours
T15 construct: expressed in transfected cells; host or cells: Ba/F3 (retroviral transduction, pBabe-Puro based vectors)
Procedure, shortened: as §1

For `C=CC(=O)N1CCC(Oc2cc3c(Nc4ccc(Cl)c(Cl)c4F)ncnc3cc2OC)CC1` [Poziotinib], the “Response of Cells Comprising T790M-like-S EGFR Mutations to Second-Generation TKIs” value (EGFR Ex19del T790M L718V) was 15.89, the “Response of Cells Comprising PACC EGFR Mutations to Second-Generation TKIs” value (EGFR Ex19del T854I) was 0.008664 and the “Response of Cells Comprising PACC EGFR Mutations to Second-Generation TKIs” value (EGFR V769L) was 0.05673. The “Response of Cells Comprising Ex20ins EGFR Mutations to Poziotinib” value (EGFR A767insASV) was 0.3183, the “Response of Cells Comprising T790M-like-R EGFR Mutations to Second-Generation TKIs” value (EGFR G724S T790M) was 2.924 and the “Response of Cells Comprising PACC EGFR Mutations to Second-Generation TKIs” value (EGFR L718V) was 0.2403. The “Response of Cells Comprising PACC EGFR Mutations to Second-Generation TKIs” value (EGFR Ex19del/C797S) was 0.458, the “Response of Cells Comprising Ex20ins EGFR Mutations to Poziotinib” value (EGFR N771dupN G724S) was 0.2167 and the “Response of Cells Comprising Classical-Like EGFR Mutations to Second-Generation TKIs” value (EGFR L858R S784F) was 0.1185. The “Response of Cells Comprising T790M-like-S EGFR Mutations to Second-Generation TKIs” value (EGFR L858R T790M L792H) was 56.36, the “Response of Cells Comprising PACC EGFR Mutations to Second-Generation TKIs” value (EGFR Ex19del G796S) was 0.2054 and the “Response of Cells Comprising Classical-Like EGFR Mutations to Second-Generation TKIs” value (EGFR E709K L858R) was 0.005342. For the same compound, the “Response of Cells Comprising PACC EGFR Mutations to Second-Generation TKIs” value (EGFR K757R) was 0.07563, the “Response of Cells Comprising PACC EGFR Mutations to Second-Generation TKIs” value (EGFR L858R/C797S) was 0.2299 and the “Response of Cells Comprising PACC EGFR Mutations to Second-Generation TKIs” value (EGFR E709A G719S) was 0.01612.
